Results on 1 molecule are retold here after patent US20230041996A1, “CALCIUM-SENSING RECEPTOR AGONIST COMPOUND AND APPLICATION THEREOF” (BEIJING TUO JIE BIOPHARMACEUTICAL CO. LTD., priority 2019, published 2023).

Format in all cases: cell-based
Data set [1] has as its target T1, human calcium-sensing receptor (CaSR) (Homo sapiens, UniProt P41180).
T1 construct: host or cells: HEK293
T1 sequence (P41180 20-1078): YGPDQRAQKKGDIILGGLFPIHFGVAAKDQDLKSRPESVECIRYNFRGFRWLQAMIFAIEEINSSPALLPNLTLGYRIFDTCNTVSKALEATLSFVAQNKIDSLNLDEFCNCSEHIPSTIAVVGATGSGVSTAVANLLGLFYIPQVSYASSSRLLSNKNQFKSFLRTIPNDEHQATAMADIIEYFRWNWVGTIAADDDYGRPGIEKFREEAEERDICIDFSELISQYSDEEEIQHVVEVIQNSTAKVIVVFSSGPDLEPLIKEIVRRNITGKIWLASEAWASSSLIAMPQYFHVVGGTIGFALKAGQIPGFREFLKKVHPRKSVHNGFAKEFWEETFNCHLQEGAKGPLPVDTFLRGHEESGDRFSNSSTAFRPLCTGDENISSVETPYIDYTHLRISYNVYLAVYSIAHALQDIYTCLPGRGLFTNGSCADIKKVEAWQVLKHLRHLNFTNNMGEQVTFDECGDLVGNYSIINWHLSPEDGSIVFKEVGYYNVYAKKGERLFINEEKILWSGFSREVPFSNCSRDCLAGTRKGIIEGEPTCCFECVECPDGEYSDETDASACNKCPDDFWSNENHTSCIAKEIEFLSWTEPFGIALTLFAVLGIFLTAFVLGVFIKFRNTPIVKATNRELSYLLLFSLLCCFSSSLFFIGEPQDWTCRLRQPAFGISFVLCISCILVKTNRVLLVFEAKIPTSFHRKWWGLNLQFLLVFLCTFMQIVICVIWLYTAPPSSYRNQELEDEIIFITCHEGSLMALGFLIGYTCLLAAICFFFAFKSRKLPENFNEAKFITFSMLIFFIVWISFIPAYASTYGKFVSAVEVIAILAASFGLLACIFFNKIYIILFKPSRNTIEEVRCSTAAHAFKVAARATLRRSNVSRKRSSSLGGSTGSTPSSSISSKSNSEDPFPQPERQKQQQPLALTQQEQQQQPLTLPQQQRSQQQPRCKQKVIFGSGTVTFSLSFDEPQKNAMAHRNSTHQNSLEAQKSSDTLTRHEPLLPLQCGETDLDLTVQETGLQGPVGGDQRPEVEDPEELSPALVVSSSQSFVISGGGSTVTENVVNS
The experiment in a line: Agonist activity on human calcium-sensing receptor (IP-One HTRF in stably transfected HEK293/CaSR cells). Particulars: HEK293/CaSR cells, IP-One production, 60 min at 37° C., CaCl2 1.2 mM; read-out: EC50 for calcium-sensing receptor. The method in brief: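 HEK293 cells stably expressing CaSR stimulated 60 min at 37 °C with compounds in buffer containing 1.2 mM CaCl2, 0.5 mM MgCl2 and 50 mM LiCl. IP-One accumulation measured by HTRF (665/620 nm ratio); EC50 from four-parameter fit.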

The test system of data set [2] is rat peritoneal mast cells. Nature of the data set: In vitro histamine release in rat peritoneal mast cells (histamine ELISA). The method in brief:
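Rat peritoneal mast cells, washed into HBSS + 25 mM HEPES + 1 mM CaCl2 (pH 7.4), were exposed to test compounds at 10 μM final, 48/80 at 4 μg/mL or vehicle for 15 min at 37° C. Histamine released into the supernatant was quantified by ELISA.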

In another data set the test system is human red blood cells. Nature of the data set: Hemolytic effect on human red blood cells in vitro (absorbance at 540 nm). The settings on record: 100 μg/mL in PBS, 37° C., 1 h, FIG. 1. As for the experimental part:
To evaluate the hemolytic effect of the compounds disclosed herein on red blood cells in vitro, human whole blood (100 μL) was taken and mixed with a phosphate buffer. The mixture was centrifuged at 4° C. for 10 min and the supernatant was discarded. The red blood cells were resuspended in PBS buffer (900 μL) and centrifuged at 4° C. for 10 min with the supernatant discarded, and the procedures above were repeated once. The test example compounds were dissolved in 1×PBS buffer to a final concentration of 100 μg/mL. The red blood cells were resuspended in solutions of various test example compounds, an octylphenoxy poly(ethyleneoxy)ethanol-100 solution or PBS buffer, and incubated at 37° C. for 1 h. After incubation, the cells were centrifuged at 4° C. for 10 min and the supernatant (100 μL) was pipetted and transferred to a 96-well plate. The absorbance at 540 nm was detected for evaluating the hemolytic effect of the test example compounds on red blood cells in vitro.

Square brackets hold non-standard residues; d marks the D form. Peptide text beside a SMILES is read from it. * marks the point of attachment. Cys(free,S-linked) = N[C@@H](CS*)C(=O)O

By EC50 is commonly meant the concentration giving half of the maximal effect.

As to `CC(=O)N[C@H](CSSC[C@H](N)C(=O)O)C(=O)N[C@H](CCCNC(=N)N)C(=O)N[C@H](CCCNC(=N)N)C(=O)N[C@@H](C(=O)N[C@H](CCCNC(=N)N)C(=O)N[C@H](CO)C(=O)N[C@H](CCCNC(=N)N)C(N)=O)C(C)C` [Compound 29, Ac-c(C)-r-r-v-r-s-r-NH2] (Ac-[dC](Cys(free,S-linked))[dR][dR][dV][dR][dS][dR]-NH2), in data set [1], the EC50 was determined as 9.8 µM. Further, the “histamine release levels in rat peritoneal mast cells in vitro relative to etelcalcetide” value in data set [2] (10 μM, comparison with etelcalcetide) is “reduction in histamine release levels”. For the same molecule, the “Relative fold of histamine release in vitro” value in data set [2] (test compound final concentration 10 μM, 15 min at 37° C., relative to PBS buffer (1.00)) amounted to 0.99. Further, in the data set with human red blood cells, the “hemolytic effect on red blood cells” value is “no significant hemolytic effect”.
